In ChEMBL document CHEMBL4138123, “Design, synthesis and biological evaluation of novel pyrazolochalcones as potential modulators of PI3K/Akt/mTOR pathway and inducers of apoptosis in breast cancer cells” (Eur J Med Chem, 2017):

Tests used:
NCI-H23 = assay: Cytotoxicity against human NCI-H23 cells assessed as growth inhibition after 48 hrs by sulforhodamine B assay; assay type: functional; settings: NCI-H23, 48 h; for CC50: read-out: LC50 (the source's name)
UACC-257 [1] = assay: Cytotoxicity against human UACC257 cells assessed as cell growth at 10 uM after 48 hrs by sulforhodamine B assay relative to control; assay type: functional; settings: UACC-257, 48 h, read-out: Activity
HT-29 = assay: Cytotoxicity against human HT-29 cells assessed as cell growth at 0.01 uM after 48 hrs by sulforhodamine B assay relative to control; assay type: functional; settings: HT-29, 48 h, read-out: Activity
UACC-257 [2] = assay: Cytotoxicity against human UACC257 cells assessed as cell growth at 0.01 uM after 48 hrs by sulforhodamine B assay relative to control; assay type: functional; settings: UACC-257, 48 h, read-out: Activity
SK-MEL-28 = assay: Cytotoxicity against human SK-MEL-28 cells assessed as cell growth at 1 uM after 48 hrs by sulforhodamine B assay relative to control; assay type: functional; settings: SK-MEL-28, 48 h, read-out: Activity
T47D = assay: Cytotoxicity against human T47D cells assessed as cell growth at 1 uM after 48 hrs by sulforhodamine B assay relative to control; assay type: functional; settings: read-out: Activity
MOLT-4 = assay: Cytotoxicity against human MOLT4 cells assessed as cell growth at 1 uM after 48 hrs by sulforhodamine B assay relative to control; assay type: functional; settings: MOLT-4, 48 h, read-out: Activity
TK-10 = assay: Cytotoxicity against human TK10 cells assessed as growth inhibition after 48 hrs by sulforhodamine B assay; assay type: functional; settings: TK-10, 48 h
SNB-19 = assay: Cytotoxicity against human SNB19 cells assessed as cell growth at 100 uM after 48 hrs by sulforhodamine B assay relative to control; assay type: functional; settings: SNB-19, 48 h, read-out: Activity
Hs-578T = assay: Cytotoxicity against human Hs 578T cells assessed as cell growth at 10 uM after 48 hrs by sulforhodamine B assay relative to control; assay type: functional; settings: read-out: Activity
SN12C = assay: Cytotoxicity against human SN12C cells assessed as cell growth at 100 uM after 48 hrs by sulforhodamine B assay relative to control; assay type: functional; settings: read-out: Activity
IGROV-1 = assay: Cytotoxicity against human IGROV1 cells assessed as cell growth at 10 uM after 48 hrs by sulforhodamine B assay relative to control; assay type: functional; settings: IGROV-1, 48 h, read-out: Activity
SR = assay: Cytotoxicity against human SR cells assessed as cell growth at 10 uM after 48 hrs by sulforhodamine B assay relative to control; assay type: functional; settings: read-out: Activity
HOP-62 = assay: Cytotoxicity against human HOP62 cells assessed as cell growth at 0.1 uM after 48 hrs by sulforhodamine B assay relative to control; assay type: functional; settings: HOP-62, 48 h, read-out: Activity
NCI-H226 = assay: Cytotoxicity against human NCI-H226 cells assessed as cell growth at 0.1 uM after 48 hrs by sulforhodamine B assay relative to control; assay type: functional; settings: NCI-H226, 48 h, read-out: Activity
RPMI-8226 [3] = assay: Cytotoxicity against human RPMI8226 cells assessed as cell growth at 100 uM after 48 hrs by sulforhodamine B assay relative to control; assay type: functional; settings: RPMI-8226, 48 h, read-out: Activity
HCC 2998 = assay: Cytotoxicity against human HCC2998 cells assessed as cell growth at 0.1 uM after 48 hrs by sulforhodamine B assay relative to control; assay type: functional; settings: HCC 2998, 48 h, read-out: Activity
SK-MEL-5 = assay: Cytotoxicity against human SK-MEL-5 cells assessed as cell growth at 10 uM after 48 hrs by sulforhodamine B assay relative to control; assay type: functional; settings: SK-MEL-5, 48 h, read-out: Activity
RPMI-8226 [4] = assay: Cytotoxicity against human RPMI8226 cells assessed as cell growth at 1 uM after 48 hrs by sulforhodamine B assay relative to control; assay type: functional; settings: RPMI-8226, 48 h, read-out: Activity
A498 [5] = assay: Cytotoxicity against human A498 cells assessed as cell growth at 0.01 uM after 48 hrs by sulforhodamine B assay relative to control; assay type: functional; settings: A498, 48 h, read-out: Activity
BT-549 [6] = assay: Cytotoxicity against human BT549 cells assessed as cell growth at 100 uM after 48 hrs by sulforhodamine B assay relative to control; assay type: functional; settings: BT-549, 48 h, read-out: Activity
NCI-H460 = assay: Cytotoxicity against human NCI-H460 cells assessed as cell growth at 10 uM after 48 hrs by sulforhodamine B assay relative to control; assay type: functional; settings: NCI-H460, 48 h, read-out: Activity
U-251 = assay: Cytotoxicity against human U251 cells assessed as cell growth at 0.01 uM after 48 hrs by sulforhodamine B assay relative to control; assay type: functional; settings: U-251, 48 h, read-out: Activity
A498 [7] = assay: Cytotoxicity against human A498 cells assessed as cell growth at 1 uM after 48 hrs by sulforhodamine B assay relative to control; assay type: functional; settings: A498, 48 h, read-out: Activity
OVCAR-3 = assay: Cytotoxicity against human OVCAR3 cells assessed as cell growth at 0.1 uM after 48 hrs by sulforhodamine B assay relative to control; assay type: functional; settings: OVCAR-3, 48 h, read-out: Activity
MDA-MB-468 = assay: Cytotoxicity against human MDA-MB-468 cells assessed as cell growth at 100 uM after 48 hrs by sulforhodamine B assay relative to control; assay type: functional; settings: MDA-MB-468, 48 h, read-out: Activity
CCRF-CEM = assay: Cytotoxicity against human CCRF-CEM cells assessed as cell growth at 10 uM after 48 hrs by sulforhodamine B assay relative to control; assay type: functional; settings: read-out: Activity
MCF7 = assay: Cytotoxicity against human MCF7 cells assessed as growth inhibition after 48 hrs by MTT assay; assay type: functional, cell-based; settings: MCF7, 48 h
BT-549 [8] = assay: Cytotoxicity against human BT549 cells assessed as cell growth at 0.01 uM after 48 hrs by sulforhodamine B assay relative to control; assay type: functional; settings: BT-549, 48 h, read-out: Activity
MDA-MB-231 = assay: Cytotoxicity against human MDA-MB-231 cells assessed as cell growth at 100 uM after 48 hrs by sulforhodamine B assay relative to control; assay type: functional; settings: MDA-MB-231, 48 h, read-out: Activity
NCI-H522 = assay: Cytotoxicity against human NCI-H522 cells assessed as cell growth at 100 uM after 48 hrs by sulforhodamine B assay relative to control; assay type: functional; settings: NCI-H522, 48 h, read-out: Activity
OVCAR-5 = assay: Cytotoxicity against human OVCAR5 cells assessed as cell growth at 1 uM after 48 hrs by sulforhodamine B assay relative to control; assay type: functional; settings: OVCAR-5, 48 h, read-out: Activity
OVCAR-8 = assay: Cytotoxicity against human OVCAR8 cells assessed as growth inhibition after 48 hrs by sulforhodamine B assay; assay type: functional; settings: OVCAR-8, 48 h
SF-539 = assay: Cytotoxicity against human SF539 cells assessed as cell growth at 100 uM after 48 hrs by sulforhodamine B assay relative to control; assay type: functional; settings: SF-539, 48 h, read-out: Activity
DU-145 = assay: Cytotoxicity against human DU145 cells assessed as cell growth at 0.1 uM after 48 hrs by sulforhodamine B assay relative to control; assay type: functional; settings: DU-145, 48 h, read-out: Activity

Compound	TGI (NCI-H23) [µM]	CC50 (NCI-H23) [µM]	growth at 10 µM (UACC-257 [1]) [%]	growth at 0.01 µM (HT-29) [%]	growth at 0.01 µM (UACC-257 [2]) [%]	growth at 1 µM (SK-MEL-28) [%]	growth at 1 µM (T47D) [%]	growth at 1 µM (MOLT-4) [%]	TGI (TK-10) [µM]	growth at 100 µM (SNB-19) [%]	growth at 10 µM (Hs-578T) [%]	growth at 100 µM (SN12C) [%]	growth at 10 µM (IGROV-1) [%]	growth at 0.1 µM (HOP-62) [%]	growth at 0.1 µM (NCI-H226) [%]	growth at 100 µM (RPMI-8226 [3]) [%]	growth at 0.1 µM (HCC 2998) [%]	growth at 10 µM (SK-MEL-5) [%]	growth at 1 µM (RPMI-8226 [4]) [%]	growth at 0.01 µM (A498 [5]) [%]	also measured
COc1cc(-c2cc(/C=C/C(=O)c3ccc(Cl)c(Cl)c3)[nH]n2)cc(OC)c1OC	> 100	> 100	66	100	96	114	62	97	43.2	12	63	11	75	101	103	-25	97	62	33	84	LC50 (TK-10): > 100 µM; growth at 10 µM (SR): 8%; growth at 100 µM (BT-549 [6]): -53%; growth at 10 µM (NCI-H460): 31%; growth at 0.01 µM (U-251): 97%; growth at 1 µM (A498 [7]): 73%; growth at 0.1 µM (OVCAR-3): 105%; growth at 100 µM (MDA-MB-468): -37%; growth at 10 µM (CCRF-CEM): 9%; IC50 (MCF7): 3.2 µM; growth at 0.01 µM (BT-549 [8]): 89%; growth at 100 µM (MDA-MB-231): 2%; growth at 100 µM (NCI-H522): -65%; growth at 1 µM (OVCAR-5): 92%; LC50 (OVCAR-8): > 100 µM; TGI (OVCAR-8): 34 µM; growth at 100 µM (SF-539): -74%
COc1ccc(C(=O)/C=C/c2cc(-c3ccc(OC)c(OC)c3)n[nH]2)cc1OC	5.7	> 100	-41	98	93	81	60	73	47.7	-36	23	-37	6	84	88	-38	101	-97	17	82	GI50 (NCI-H23): 2.25 µM; GI50 (TK-10): 4.96 µM; growth at 100 µM (BT-549 [6]): -89%; growth at 10 µM (NCI-H460): -20%; growth at 0.01 µM (U-251): 95%; growth at 1 µM (A498 [7]): 63%; growth at 0.1 µM (OVCAR-3): 109%; growth at 100 µM (MDA-MB-468): -64%; growth at 10 µM (CCRF-CEM): -5%; IC50 (MCF7): 0.8 µM; growth at 0.01 µM (BT-549 [8]): 84%; growth at 100 µM (MDA-MB-231): -28%; growth at 100 µM (NCI-H522): -75%; growth at 0.1 µM (DU-145): 105%; growth at 1 µM (OVCAR-5): 76%; GI50 (OVCAR-8): 2.63 µM; TGI (OVCAR-8): 22.5 µM; growth at 100 µM (SF-539): -83%
COc1cc(C(=O)/C=C/c2cc(-c3cc(OC)c(OC)c(OC)c3)n[nH]2)cc(OC)c1OC	9.9	64.3	-93	95	94	100	57	81	2.8	-98	10	-97	1	94	93	-26	101	-98	17	95	LC50 (TK-10): 5.34 µM; growth at 10 µM (SR): 12%; growth at 100 µM (BT-549 [6]): -94%; growth at 10 µM (NCI-H460): -51%; growth at 0.01 µM (U-251): 96%; growth at 1 µM (A498 [7]): 80%; growth at 0.1 µM (OVCAR-3): 105%; growth at 100 µM (MDA-MB-468): -91%; growth at 10 µM (CCRF-CEM): -7%; IC50 (MCF7): 0.43 µM; growth at 0.01 µM (BT-549 [8]): 102%; growth at 100 µM (MDA-MB-231): -96%; growth at 100 µM (NCI-H522): -98%; growth at 1 µM (OVCAR-5): 89%; LC50 (OVCAR-8): 6.81 µM; TGI (OVCAR-8): 3.28 µM; growth at 100 µM (SF-539): -99%
